Structures are written as SMILES.

`O=c1n(Cc2ccc([N+](=O)[O-])cc2)c2ccccc2n1Cc1ccc(C(F)(F)F)cc1` registered a melting point of 134 to 137 °C.
`COc1cc(C(C)C)c2c(c1)S(=O)(=O)N(COc1cc(C(F)(F)F)nn1-c1ccc3ccccc3n1)C2=O` returned a melting point of 124 to 125 °C.
The compound `C[C@@H](O)[C@H](NC(=O)OC(C)(C)C)C(=O)NOCc1ccccc1` registered a melting point of 87 °C.
With `Cc1cc(CCCCCOc2ccc(C3=NCCO3)cc2CO)on1`, the melting point was 140 to 141 °C.
The compound `CN(C)C=Nc1[nH]nc(NCCNC(=O)OC(C)(C)C)c1C#N` registered a melting point of 158 to 160 °C.
The compound `C=C1C(=O)OC2C1CCC(C)=CCCC1(C)OC21` (stereo not drawn) returned a melting point of 112 to 113 °C.
The compound `O=C(c1ccc(-c2cccc(C(F)(F)F)c2)o1)N1Cc2c([nH]c3ccccc3c2=O)C1c1ccc2c(c1)OCO2` (stereo not drawn) had a melting point of 219 to 221 °C.
In turn, `O=C(c1ccccc1)c1ccc(N2CCCC2=O)cc1` displayed a melting point of 156 to 158 °C.
For the compound `O=C(O)CN1CCN(CCNC(=O)c2cc3ccc(C4OC(CO)C(O)C(O)C4O)cc3oc2=O)CC1` (stereo not drawn), the melting point was in the range of 140 to 143 °C.
The compound `CCCCSc1nsnc1O` displayed a melting point of 72 to 72.5 °C.
In turn, `CC(=O)OC1CCC2(C)C(=CCC3C4=CCC(C(C)=O)C4(C)CCC32)C1` (stereo not drawn) showed a melting point of 205 to 208 °C.
As for `O=C1CCc2cc(Cl)cc(Cl)c2C1`, the figure is 90 to 92 °C; as for `O=C(O)CC(=O)NCc1cc(Br)cc2[nH]c(=O)c(=O)[nH]c12`, > 300 °C.
Consider `CC(=O)c1ccc(OCCCN2CCC(c3noc4cc(F)ccc34)CC2)c(Br)c1`, for which the melting point fell in the range of 126 to 128 °C.
To `CCNC1c2cc(S(N)(=O)=O)oc2SCC1(C)C` (stereo not drawn) belongs 147 °C.
To `CCCCCCCCCCCCCCOc1ccc(CC(=O)Nc2cccc(I)c2)cc1` belongs 108 to 110 °C.
With `Oc1ccccc1Oc1ccc(Cl)cn1`, the melting point fell in the range of 97 to 100 °C.
In the case of `CCOC(=O)CC(NC(=O)c1cccc(Cl)c1)C(=O)c1ccsc1` (stereo not drawn), the melting point is 63 to 65 °C.
To `CCCc1nc2c(c(C)c(C)n3nnnc23)n1CC(C)(C)NC(C)=O` belongs 237 to 240 °C.
In turn, `Cc1c(-c2ccnc(Cl)n2)cccc1[N+](=O)[O-]` gave a melting point of 138 to 139 °C.
As for `NC(=O)c1sc2nccc(N3CCCN(c4ccc5c(c4)OCCO5)CC3)c2c1N`, the figure is 104 to 107 °C.
To `COc1cc(Cl)nc(NC(=O)NS(=O)(=O)c2ccccc2OC(Cl)=CCl)n1` belongs 196 to 198 °C; to `CCOC(=O)C1(C(=O)OCC)CC(c2ccccc2[N+](=O)[O-])C(O)N1C=O` (stereo not drawn), 109 to 111 °C.
`Cc1nc2c(cc1C(=O)NC(=N)N)CCCCC2COS(=O)(=O)O` (stereo not drawn) displayed a melting point of 231 to 233 °C.
The compound `CC(C)c1ccc(Cc2c(N)nc(SCCN3CCNCC3)nc2N)cc1` came in with a melting point of 63 to 64 °C.
The compound `COc1cc(C(=O)O)c(-c2c(C(=O)O)cc(OC)c3c2OCO3)c(OC)c1OC` had a melting point of 258 to 259 °C.
To `CCOC(=O)N=P(c1ccccc1)(c1ccccc1)c1ccccc1C` belongs 113 to 114 °C; to `CCCCc1oc2ccccc2c1C(=O)NCc1ccc2c(-c3ccc(Cl)cc3)c(OC(Cc3ccccc3)C(=O)O)ccc2c1` (stereo not drawn), 169 to 172 °C; to `COc1ccc(S(=O)(=O)Oc2ccn3nc(-c4ccccc4)c(-c4ccc(=O)n(C(C)C)n4)c3c2)cc1`, 155 to 157 °C.
Turning to `Brc1ccc(/C=N/c2ccccc2)c(OCc2ccccc2)c1`, the melting point came out at 100 °C.
`CCn1nnc(C(C=O)=C(c2ccc(F)cc2)c2ccc(F)cc2)n1` gave a melting point of 138 to 139 °C.
For `O=S(=O)(Nc1ccccc1O)c1ccc(Cl)cc1`, the melting point came to 82 °C.
For `CNC(=S)N1CCc2cc(S(=O)(=O)N3CC(c4ccccc4)NC3=O)ccc21` (stereo not drawn), the melting point was in the range of 217 to 219 °C.
In the case of `Fc1ccc2c(CN3CCN(c4ccc(Cl)cc4)CC3)n[nH]c2c1`, the melting point was in the range of 217 to 219 °C.
As for `CN(C)CCCCCOc1ccc2oc(-c3ccccc3)cc(=O)c2c1`, the figure is 82 to 83 °C; as for `COc1ccccc1S(=O)(=O)OC(Br)C(=O)c1ccccc1` (stereo not drawn), 90 to 91 °C.
`O=[N+]([O-])c1ccc(Cn2c(S(=O)(=O)C(F)(F)C(F)F)nc(-c3ccc(F)cc3)c2-c2ccc(F)cc2)cc1` returned a melting point of 169 to 170 °C.
Turning to `Cc1nn(C)c(C)c1Nc1ccc([N+](=O)[O-])cc1[N+](=O)[O-]`, the melting point is 153 °C.
`Nc1ncc(-c2ccccc2-c2ncccn2)c(N)n1` showed a melting point of 95.1 °C.
Regarding `O=C(NC1c2sc([N+](=O)[O-])cc2OCC1O)c1ccc(C(F)(F)F)cc1` (stereo not drawn), the melting point was 219 to 220 °C.
Consider `Cc1cc(C(F)(F)F)nn1CC(=O)N1CCC(C(N)=S)CC1`, for which the melting point is 185 to 186 °C.
As to `Cc1cc(C(=O)Nc2ccccc2C)n(C)n1`, the melting point was 158 to 160 °C.
The compound `CC(C)c1ccc(-c2csc(-c3cccc(C(=O)O)c3)c2)cc1` registered a melting point of 220 to 222 °C.
As for `CCCC(=O)c1cnc2ccsc2c1Nc1ccccc1C`, the melting point lay within 114 to 116 °C.
Take `Fc1cc(Cl)cnc1Cl`: the melting point lay in the range of 38 to 39 °C.
Turning to `COCC(C#N)=Cc1cc(OC)c(OC)c(OC)c1`, the melting point was in the range of 79 to 81 °C.
Turning to `O=[N+]([O-])c1cnn(-c2c(Cl)cc(Cl)cc2Cl)c1Cl`, the melting point lay in the range of 78 to 84 °C.
The compound `COC(=O)c1c(C)cc2cc(OC)c(OC)cc2c1-c1ccnc(Br)c1` returned a melting point of 148 to 150 °C.
Regarding `Cc1cccc(C(=O)NN2NC=CC2C(=O)NCC(O)c2ccc(C(F)(F)F)cc2)n1` (stereo not drawn), the melting point is 250 to 251 °C.
In turn, `CN(Cc1ccccc1)C(=O)c1c(-c2ccncc2)c(-c2ccc(F)cc2)nn1C` came in with a melting point of 149 to 150 °C.
`O=C1c2ccccc2-n2cncc2[C@@H]2CCCN12` showed a melting point of 211 to 212 °C.
In turn, `CCCCCCCCCCCCCCCCCCN(C)CC(O)CO` (stereo not drawn) showed a melting point of 59 °C.
In turn, `COP(=O)(Cc1c(C)ccc2ccccc12)OC` gave a melting point of 54 to 57 °C.
For `CC(C)(C)n1nnc(-c2ccc(CNc3n[nH]c4ncnc(Nc5cccc(Cl)c5)c34)cc2)n1`, the melting point was 168 to 170 °C.
As to `COc1ccc(C(=O)CCCCCBr)cc1Cl`, the melting point lay in the range of 104 to 106 °C.
To `CO[C@@H]1c2ccn3c(C)c(C)nc3c2N[C@H](c2ccccc2)[C@H]1OC=O` belongs 152 to 153 °C; to `C=CC(=O)OCCCCCCCCOc1ccc(-c2ccc(OCCCCCCCCOC(=O)C=C)c(F)c2)cc1F`, 56.1 to 57.9 °C.
Turning to `CC(CO)C1CCC2C3CC=C4CC(O)CC(O)C4(C)C3CCC12C` (stereo not drawn), the melting point lay within 205 to 207 °C.
The compound `Cn1c(COc2nn3c(-c4ccccc4F)nncc3c2-c2ccccc2F)nc2ccccc21` showed a melting point of 218 to 220 °C.
As for `Cc1cc(Nc2cc(C(C)(C)C)c(O)c(C(C)(C)C)c2)n2nccc2n1`, the figure is 251 to 253 °C.
`Nc1onc(C(F)(F)F)c1-c1ccccc1` yielded a melting point of 89 to 91 °C.
As to `OC(CCN1CCN(c2ccccc2)CC1)COc1ccc(Br)cc1` (stereo not drawn), the melting point was 100 to 103 °C.
In turn, `C=CC(=O)c1c(-c2ccccc2)[nH]c2ccccc12` gave a melting point of 145 to 146 °C.

As a reminder, the melting point is the temperature of the solid-liquid transition.

The values above are taken from a melting point compilation (Tetko et al.; mined from patent text by program, amines drawn as free bases though some values may be those of a salt).
